Structures are written as SMILES.

The data set is described as follows: HILIC, Waters ACQUITY UPLC BEH Amide, 100 × 2.1 mm, 1.7 µm; A: water + 0.125% formic acid + 10 mM ammonium formate; B: 5% water + 95% acetonitrile + 0.125% formic acid + 10 mM ammonium formate; gradient (min/%B) 0/100 2/100 7.7/70 9.5/40 10.25/30 12.75/100 17/100. The settings on record: stereoisomer not certain.
Regarding `CCC(C)C(=O)OC1CC(O)C=C2C=CC(C)C(CCC(O)CC(O)CC(=O)O)C21` (centres undefined) [Pravastatin], the LC retention time came to 1.8 min.

`NC(N)=NCCCC(N)C(=O)N1CCCC1C(=O)O` (centres undefined) [Arg-Pro]: the LC retention time turned out to be 9.51 min.

Turning to `CC(C)(N)Cc1ccccc1` [Phentermine], the LC retention time stood at 6.23 min.

For the compound `CC(C(=O)O)c1ccc(CC2CCCC2=O)cc1` (centres undefined) [Loxoprofen], the LC retention time stood at 1.09 min.

In the case of `CCC(C)n1ncn(-c2ccc(N3CCN(c4ccc(OCC5COC(Cn6cncn6)(c6ccc(Cl)cc6Cl)O5)cc4)CC3)cc2)c1=O` (centres undefined) [Itraconzaole], the LC retention time worked out at 0.97 min.

On to `Nc1nc(Cl)nc2c1ncn2C1OC(CO)C(O)C1O` (centres undefined) [2-Chloroadenosine], for which the LC retention time amounted to 2.69 min.

Consider `CCCCCCCCCCCC(=O)OC(CC(=O)[O-])C[N+](C)(C)C` [Lauroyl-L-carnitine], for which the LC retention time was determined as 3.63 min.

Regarding `NC(Cc1cccc(O)c1)C(=O)O` (centres undefined) [3-Hydroxyphenylalanine], the LC retention time worked out at 7.44 min.

As for `COCc1c(C(C)C)nc(C(C)C)c(C=CC(O)CC(O)CC(=O)O)c1-c1ccc(F)cc1` (centres undefined) [Cerivastatin], the LC retention time came out at 1.18 min.

Regarding `O=C(O)CCC(O)C(=O)O` (centres undefined) [2-Hydroxyglutaric acid], the LC retention time came to 0.91 min.

On to `CC1C(c2ccccc2)OCCN1C` (centres undefined) [Phendimetrazine], for which the LC retention time stood at 2.52 min.

With `CN(CC(=O)O)C(=N)N` [Creatine], the LC retention time worked out at 8.15 min.

For the compound `CC(C)CC1NC(=O)C2CCCN2C1=O` (centres undefined) [Cyclo(Leu-Pro)], the LC retention time came to 1.29 min.

With `C[N+](C)(C)CC(=O)[O-]` [Betaine], the LC retention time was determined as 7.24 min.

In the case of `CC(=O)OC1CC2CCC3C(CCC4(C)C3CC([N+]3(C)CCCCC3)C4OC(C)=O)C2(C)CC1N1CCCCC1` (centres undefined) [Vercuronium], the LC retention time was determined as 5.53 min.

For `CC(=O)CC(c1ccccc1)c1c(O)c2ccccc2oc1=O` (centres undefined) [Warfarin], the LC retention time was 0.99 min.

With `NCCCCC(N)C(=O)NCC(=O)O` (centres undefined) [Lys-Gly], the LC retention time stood at 9.84 min.

For `CSc1nc2cc(Oc3cccc(Cl)c3Cl)c(Cl)cc2[nH]1` [Triclabendazole], the LC retention time was 1.01 min.

Regarding `CC12CCC(=O)C=C1CCC1C2C(O)CC2(C)C1CCC2(O)C(=O)CO` (centres undefined) [Hydrocortisone], the LC retention time is 2.56 min.

Take `CC(=O)CC(C)(C)O` [4-Hydroxy-4-methyl-2-pentanone]: the LC retention time is 4.88 min.

For `CN(C)CCCSc1ccccc1NC(=O)C=Cc1ccccc1` [Cinanserin], the LC retention time is 2.61 min.

With `COC1C(O)C(CO)OC1n1ccc(=O)[nH]c1=O` (centres undefined) [2'-O-Methyluridine], the LC retention time turned out to be 2.24 min.

Take `O=C(c1ccc(F)cc1)C1CCN(CCn2c(=S)[nH]c3ccccc3c2=O)CC1` [Altanserin]: the LC retention time was 2.64 min.

Turning to `COc1cc(C=Cc2ccc(O)cc2)cc(OC)c1` [Pterostilbene], the LC retention time was 0.98 min.

For `CCNC(C)Cc1ccc2c(c1)OCO2` (centres undefined) [3,4-Methylenedioxyethamphetamine], the LC retention time stood at 2.94 min.

In the case of `COc1ccc2c3c1OC1CC(O)C=CC31CCN(C)C2` (centres undefined) [Galanthamine], the LC retention time amounted to 4.62 min.

As for `O=C(O)c1cccnc1C(=O)O` [Quinolinic acid], the LC retention time is 2.16 min.

As for `Oc1ccc(C=Cc2cc(O)cc(O)c2)cc1` [Resveratrol], the LC retention time was found to be 1.41 min.

With `CC(NC(=O)C(N)CCCN=C(N)N)C(=O)O` (centres undefined) [Arg-Ala], the LC retention time stood at 9.66 min.

Turning to `OCCc1c[nH]c2ccc(O)cc12` [5-Hydroxytryptophol], the LC retention time stood at 5.93 min.

As for `NC(=O)C(N)Cc1c[nH]c2ccccc12` (centres undefined) [Tryptophanamide], the LC retention time came out at 5.91 min.

`CC1OC(OC2C(Oc3cc(O)c4c(c3)OC(c3ccc(O)cc3)CC4=O)OC(CO)C(O)C2O)C(O)C(O)C1O` (centres undefined) [Naringin]: the LC retention time is 5.61 min.

For the compound `NC(=O)c1ccccc1` [Benzamide], the LC retention time was determined as 1.27 min.

Consider `Nc1nc(N)nc(-c2cc(Cl)ccc2Cl)n1` [Irsogladine], for which the LC retention time turned out to be 1.25 min.

For the compound `Cn1c(N)nc2c(ncn2C2OC(CO)C(O)C2O)c1=O` (centres undefined) [1-Methylguanosine], the LC retention time worked out at 5.84 min.

For the compound `NC(=NCc1ccc(Cl)cc1)SCCCc1cnc[nH]1` [Clobenpropit], the LC retention time is 6.13 min.

For `Oc1ccc(C2CNCCc3c2cc(O)c(O)c3Cl)cc1` (centres undefined) [Fenoldopam], the LC retention time was 5.68 min.

As to `NC(Cc1ccc(O)cc1)C(=O)NC(Cc1ccc(O)cc1)C(=O)O` (centres undefined) [Tyr-Tyr], the LC retention time was found to be 7.38 min.

`CC(C)CC(NC(=O)OCc1ccccc1)C(=O)O` (centres undefined) [N-Carbobenzyloxyleucine]: the LC retention time came out at 1.28 min.

On to `CCOP(=O)(OCC)Oc1ccc([N+](=O)[O-])cc1` [Paraoxon], for which the LC retention time was 1.02 min.

As for `COCCCCC(=NOCCN)c1ccc(C(F)(F)F)cc1` [Fluvoxamine], the LC retention time came out at 2.93 min.

Regarding `Cc1cn(C2CC(O)C(CO)O2)c(=O)[nH]c1=O` (centres undefined) [Thymidine], the LC retention time was 2.57 min.

In the case of `CC#CC1(O)CCC2C3CCC4=CC(=O)CCC4=C3C(c3ccc(N(C)C)cc3)CC21C` (centres undefined) [Mifepristone], the LC retention time came to 1 min.

In the case of `Cn1c(=O)ccn(C2OC(CO)C(O)C2O)c1=O` (centres undefined) [3-Methyluridine], the LC retention time is 1.12 min.

As for `Cc1sc(N)c(C(=O)c2cccc(C(F)(F)F)c2)c1C`, the LC retention time was found to be 0.94 min.

As to `NC(Cc1c[nH]c2ccc(O)cc12)C(=O)O` (centres undefined) [5-Hydroxytryptophan], the LC retention time came to 7.48 min.

As for `O=C1OC(C(O)CO)C(O)=C1O` (centres undefined) [Ascorbic acid], the LC retention time came out at 1.44 min.

In the case of `O=c1c(-c2ccc(O)cc2)coc2cc(O)cc(O)c12` [4,5,7-Trihydroxyisoflavone], the LC retention time came to 1.27 min.

With `Clc1ccc(CON=C(Cn2ccnc2)c2ccc(Cl)cc2Cl)c(Cl)c1` [Oxiconazole], the LC retention time stood at 1.08 min.

Consider `O=C(OC1CC2CC3CC(C1)N2CC3=O)c1c[nH]c2ccccc12` (centres undefined) [Dolasetron], for which the LC retention time was 1.9 min.

As to `CCC(C)C(NC(=O)CN)C(=O)O` (centres undefined) [Gly-Ile], the LC retention time stood at 7.67 min.

Take `CC1CC2C3CCC4=CC(=O)C=CC4(C)C3(Cl)C(O)CC2(C)C1(O)C(=O)CO` (centres undefined) [Beclomethasone]: the LC retention time came out at 1.26 min.

For `CCN1CCCC1CNC(=O)c1c(O)c(Cl)cc(Cl)c1OC` (centres undefined) [Raclopride], the LC retention time came out at 2.11 min.

With `CC1C(=O)Nc2ccccc21` (centres undefined) [3-Methyloxyindole], the LC retention time is 1.07 min.

In the case of `NCCC(=O)NC(Cc1cnc[nH]1)C(=O)O` (centres undefined) [Carnosine], the LC retention time was 9.54 min.

For `C[N+](C)(C)CCCCC(N)C(=O)[O-]` (centres undefined) [NEPSILON,NEPSILON,NEPSILON-TRIMETHYLLYSINE], the LC retention time is 9.29 min.

Turning to `NCCCC(N)C(=O)O` (centres undefined) [Ornithine], the LC retention time worked out at 9.6 min.

Consider `COc1ccc2[nH]cc(CC(=O)O)c2c1` [5-Methoxy-3-indoleacetic acid], for which the LC retention time was found to be 1.32 min.

Take `CC(=O)C1(O)Cc2c(O)c3c(c(O)c2C(OC2CC(N)C(O)C(C)O2)C1)C(=O)c1ccccc1C3=O` (centres undefined) [Idarubicin]: the LC retention time was 5.42 min.

The record behind these values is the RepoRT retention time repository.
